One block for each compound: values may come before it.
Experiments:
[1] = biological target: Glutamate receptor ionotropic, kainate 1 (Rattus norvegicus, UniProt P22756); assay: biochemical
Description: Displacement of [3H]SYM 2081 from rat recombinant GluR5 expressed in Sf9 cells

[2] = biological target: Glutamate receptor 3 (Rattus norvegicus, UniProt P19492); assay: biochemical
Description: Displacement of [3H]AMPA from rat recombinant GluR3 expressed in Sf9 cells

[3] = biological target: Glutamate receptor 2 (Rattus norvegicus, UniProt P19491); assay: biochemical
Description: Displacement of [3H]AMPA from rat recombinant GluR2 expressed in Sf9 cells

[4] = Displacement of [3H]KA from kainate receptor in rat synaptosomes; type: subcellular, Brain
[5] = Displacement of [3H]AMPA from AMPA receptor in rat synaptosomes; type: subcellular, Brain
[6] = biological target: Glutamate receptor ionotropic, kainate 2 (Rattus norvegicus, UniProt P42260); assay: Displacement of [3H]KA from rat recombinant GluR6 expressed in Sf9 cells
[7] = Activity at ionotropic GluR in rat cortical wedge by electrophysiology assay
[8] = biological target: Glutamate NMDA receptor; assay: Displacement of [3H]CGP 39653 from NMDA receptor in rat synaptosomes; type: subcellular, Brain
[9] = biological target: Glutamate receptor 4 (Rattus norvegicus, UniProt P19493); assay: biochemical
Description: Displacement of [3H]AMPA from rat recombinant GluR4 expressed in Sf9 cells

[10] = biological target: Glutamate receptor 1 (Rattus norvegicus, UniProt P19490); assay: biochemical
Description: Displacement of [3H]AMPA from rat recombinant GluR1 expressed in Sf9 cells

[11] = biological target: Glutamate NMDA receptor; assay: Displacement of [3H][…] from NMDA receptor in rat synaptosomes; type: subcellular, Brain
[12] = Agonist activity at GluR2 L483Y mutant expressed in Xenopus laevis oocytes assessed as by effect on glutamate-induced current relative to glutamate; type: functional, Homo sapiens, Oocyte
[13] = Agonist activity at GluR2 L483Y mutant expressed in Xenopus laevis oocytes assessed as by effect on glutamate-induced current by two-electrode voltage clamp assay; type: functional, cell-based; details: Homo sapiens, Oocyte

Sequence of Glutamate receptor ionotropic, kainate 2 (P42260 whole entry): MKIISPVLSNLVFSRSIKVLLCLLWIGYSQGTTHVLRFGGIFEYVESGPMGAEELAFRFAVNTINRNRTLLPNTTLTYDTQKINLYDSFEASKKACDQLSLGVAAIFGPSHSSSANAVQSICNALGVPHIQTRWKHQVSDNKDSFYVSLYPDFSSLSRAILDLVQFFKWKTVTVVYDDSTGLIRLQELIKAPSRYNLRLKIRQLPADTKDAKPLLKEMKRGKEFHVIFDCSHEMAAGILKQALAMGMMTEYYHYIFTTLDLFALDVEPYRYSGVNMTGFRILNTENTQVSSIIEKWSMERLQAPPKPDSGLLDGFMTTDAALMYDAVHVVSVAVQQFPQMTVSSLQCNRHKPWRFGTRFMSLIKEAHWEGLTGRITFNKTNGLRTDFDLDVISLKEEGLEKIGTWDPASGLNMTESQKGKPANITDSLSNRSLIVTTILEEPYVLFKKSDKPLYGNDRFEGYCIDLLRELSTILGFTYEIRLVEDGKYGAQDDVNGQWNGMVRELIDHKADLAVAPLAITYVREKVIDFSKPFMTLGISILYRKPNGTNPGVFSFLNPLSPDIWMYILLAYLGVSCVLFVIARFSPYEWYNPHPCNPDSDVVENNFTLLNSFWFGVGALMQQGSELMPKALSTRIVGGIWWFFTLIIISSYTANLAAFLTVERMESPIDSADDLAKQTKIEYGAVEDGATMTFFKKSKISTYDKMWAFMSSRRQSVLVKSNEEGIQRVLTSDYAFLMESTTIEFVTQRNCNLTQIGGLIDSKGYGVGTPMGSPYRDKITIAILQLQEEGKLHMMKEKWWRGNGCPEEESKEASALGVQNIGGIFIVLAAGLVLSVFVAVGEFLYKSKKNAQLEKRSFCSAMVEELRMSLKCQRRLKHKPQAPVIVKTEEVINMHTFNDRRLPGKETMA
Sequence of Glutamate receptor 4 (P19493 whole entry): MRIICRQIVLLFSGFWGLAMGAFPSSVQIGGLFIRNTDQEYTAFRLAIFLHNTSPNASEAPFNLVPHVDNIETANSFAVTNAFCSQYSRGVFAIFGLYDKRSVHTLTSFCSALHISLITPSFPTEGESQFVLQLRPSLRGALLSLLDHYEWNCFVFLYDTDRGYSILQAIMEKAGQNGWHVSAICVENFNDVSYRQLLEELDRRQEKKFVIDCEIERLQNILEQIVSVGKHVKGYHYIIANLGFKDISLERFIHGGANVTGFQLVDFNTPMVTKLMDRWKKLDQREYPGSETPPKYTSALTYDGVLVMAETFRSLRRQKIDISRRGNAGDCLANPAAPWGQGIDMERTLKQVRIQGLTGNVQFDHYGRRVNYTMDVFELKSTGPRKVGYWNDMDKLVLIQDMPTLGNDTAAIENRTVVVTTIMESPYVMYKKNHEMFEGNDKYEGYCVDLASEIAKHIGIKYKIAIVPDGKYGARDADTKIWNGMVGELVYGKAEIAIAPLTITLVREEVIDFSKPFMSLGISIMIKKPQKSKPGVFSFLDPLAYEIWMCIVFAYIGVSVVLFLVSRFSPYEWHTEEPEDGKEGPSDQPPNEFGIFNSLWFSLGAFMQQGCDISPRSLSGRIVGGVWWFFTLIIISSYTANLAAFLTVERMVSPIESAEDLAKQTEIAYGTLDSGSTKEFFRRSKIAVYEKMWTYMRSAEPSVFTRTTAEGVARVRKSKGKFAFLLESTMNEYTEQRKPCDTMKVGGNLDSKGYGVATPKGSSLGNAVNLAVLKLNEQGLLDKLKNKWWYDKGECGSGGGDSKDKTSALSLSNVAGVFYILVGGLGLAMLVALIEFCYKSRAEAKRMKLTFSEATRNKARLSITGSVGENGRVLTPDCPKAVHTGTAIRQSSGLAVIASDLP
Sequence of Glutamate receptor 2 (P19491 whole entry): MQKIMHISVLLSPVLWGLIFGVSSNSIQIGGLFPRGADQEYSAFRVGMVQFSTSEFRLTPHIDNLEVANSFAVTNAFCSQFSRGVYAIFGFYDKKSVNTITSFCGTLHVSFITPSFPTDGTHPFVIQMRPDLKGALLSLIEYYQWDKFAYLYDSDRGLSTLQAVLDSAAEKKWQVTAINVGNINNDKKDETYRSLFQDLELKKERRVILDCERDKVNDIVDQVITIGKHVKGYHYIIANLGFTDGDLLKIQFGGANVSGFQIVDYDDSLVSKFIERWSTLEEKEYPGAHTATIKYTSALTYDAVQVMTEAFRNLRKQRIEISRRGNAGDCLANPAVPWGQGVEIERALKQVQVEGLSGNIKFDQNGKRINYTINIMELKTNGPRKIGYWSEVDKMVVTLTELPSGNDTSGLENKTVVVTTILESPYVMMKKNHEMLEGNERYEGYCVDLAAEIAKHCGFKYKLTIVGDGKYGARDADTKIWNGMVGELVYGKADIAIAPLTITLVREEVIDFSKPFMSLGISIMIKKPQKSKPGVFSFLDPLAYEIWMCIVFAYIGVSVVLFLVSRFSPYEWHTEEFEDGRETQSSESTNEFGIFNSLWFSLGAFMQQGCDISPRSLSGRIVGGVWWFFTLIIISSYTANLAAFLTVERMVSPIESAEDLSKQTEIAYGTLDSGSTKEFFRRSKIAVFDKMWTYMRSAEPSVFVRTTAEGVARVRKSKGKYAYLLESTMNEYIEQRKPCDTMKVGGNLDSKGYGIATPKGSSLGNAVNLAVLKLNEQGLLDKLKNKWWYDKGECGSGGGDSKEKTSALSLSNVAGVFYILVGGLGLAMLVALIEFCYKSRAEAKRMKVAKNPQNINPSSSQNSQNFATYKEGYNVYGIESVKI
Sequence of Glutamate receptor ionotropic, kainate 1 (P22756 whole entry): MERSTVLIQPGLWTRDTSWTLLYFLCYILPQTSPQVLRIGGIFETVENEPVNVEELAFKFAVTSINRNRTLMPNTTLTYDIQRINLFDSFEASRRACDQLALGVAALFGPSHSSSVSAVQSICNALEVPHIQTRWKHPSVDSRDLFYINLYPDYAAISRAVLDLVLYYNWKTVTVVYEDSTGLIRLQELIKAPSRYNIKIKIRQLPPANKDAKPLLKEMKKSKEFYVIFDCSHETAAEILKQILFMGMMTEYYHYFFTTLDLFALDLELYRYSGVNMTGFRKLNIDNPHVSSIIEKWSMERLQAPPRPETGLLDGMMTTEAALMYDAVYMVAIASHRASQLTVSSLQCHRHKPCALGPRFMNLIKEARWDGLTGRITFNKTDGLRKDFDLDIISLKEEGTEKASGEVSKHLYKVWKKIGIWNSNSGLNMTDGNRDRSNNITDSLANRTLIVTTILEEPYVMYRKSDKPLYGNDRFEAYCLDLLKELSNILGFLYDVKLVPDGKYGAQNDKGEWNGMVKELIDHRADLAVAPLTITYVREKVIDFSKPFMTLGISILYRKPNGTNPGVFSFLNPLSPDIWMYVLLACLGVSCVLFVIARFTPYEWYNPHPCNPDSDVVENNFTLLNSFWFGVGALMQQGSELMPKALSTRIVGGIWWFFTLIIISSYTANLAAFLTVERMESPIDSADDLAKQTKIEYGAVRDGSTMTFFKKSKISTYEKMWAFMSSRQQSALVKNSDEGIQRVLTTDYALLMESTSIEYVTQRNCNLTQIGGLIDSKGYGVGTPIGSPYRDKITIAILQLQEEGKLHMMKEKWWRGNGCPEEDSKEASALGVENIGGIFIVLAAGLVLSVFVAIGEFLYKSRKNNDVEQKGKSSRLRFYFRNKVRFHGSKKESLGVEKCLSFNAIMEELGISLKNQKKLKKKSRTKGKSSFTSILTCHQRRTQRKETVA
Sequence of Glutamate receptor 3 (P19492 whole entry): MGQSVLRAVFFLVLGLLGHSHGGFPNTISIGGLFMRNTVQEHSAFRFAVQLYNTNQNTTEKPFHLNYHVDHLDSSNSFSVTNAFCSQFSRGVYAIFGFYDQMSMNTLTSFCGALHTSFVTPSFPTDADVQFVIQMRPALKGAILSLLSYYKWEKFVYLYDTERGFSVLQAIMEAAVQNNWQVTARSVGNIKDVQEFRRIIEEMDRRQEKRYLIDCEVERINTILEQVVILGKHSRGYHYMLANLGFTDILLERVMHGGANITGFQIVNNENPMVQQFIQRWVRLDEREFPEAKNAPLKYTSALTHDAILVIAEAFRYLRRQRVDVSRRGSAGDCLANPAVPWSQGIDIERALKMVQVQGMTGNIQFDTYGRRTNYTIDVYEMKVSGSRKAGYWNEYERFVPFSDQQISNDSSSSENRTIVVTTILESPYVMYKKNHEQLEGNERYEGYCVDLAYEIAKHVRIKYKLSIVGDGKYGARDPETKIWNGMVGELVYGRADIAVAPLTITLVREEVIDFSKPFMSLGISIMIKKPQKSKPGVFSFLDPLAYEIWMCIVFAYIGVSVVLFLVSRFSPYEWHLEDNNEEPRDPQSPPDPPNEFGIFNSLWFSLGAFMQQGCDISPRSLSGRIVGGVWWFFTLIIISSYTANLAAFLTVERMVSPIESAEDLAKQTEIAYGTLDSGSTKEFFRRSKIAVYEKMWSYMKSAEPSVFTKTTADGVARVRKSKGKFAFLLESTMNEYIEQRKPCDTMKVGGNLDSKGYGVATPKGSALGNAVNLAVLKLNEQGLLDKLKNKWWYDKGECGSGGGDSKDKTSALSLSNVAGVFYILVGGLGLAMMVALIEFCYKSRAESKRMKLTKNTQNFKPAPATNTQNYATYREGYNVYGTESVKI

SMILES: CCn1nnc(-c2onc(O)c2CC(N)C(=O)O)n1 (stereo not given)
- Ki [1]: 2.9 µM
- Ki [2]: 0.045 µM
- Ki [3]: 0.08 µM
- IC50 [4]: > 100 µM
- IC50 [5]: 0.13 µM
- Ki [6]: > 100 µM
- EC50 [7]: 3.5 µM
- Ki [8]: > 100 µM
- Ki [9]: 0.044 µM
- Ki [10]: 0.15 µM

SMILES: Cc1onc(O)c1CC(N)C(=O)O (racemic) [(R,S)-AMPA]
- IC50 [4]: > 100 µM
- Ki [6]: > 1000 µM

SMILES: Cn1nnc(-c2onc(O)c2C[C@H](N)C(=O)O)n1
- Ki [1]: 8.1e-05 µM
- Ki [3]: 0.0039 µM
- IC50 [4]: 11 µM
- IC50 [5]: 0.009 µM
- Ki [6]: 19 µM
- Ki [9]: 0.0027 µM
- Ki [11]: > 100 µM

SMILES: NC(Cc1c(O)noc1-c1nnn(Cc2ccccc2)n1)C(=O)O (racemic)
- Ki [1]: 58 µM
- IC50 [4]: > 100 µM
- IC50 [5]: 2.7 µM
- Ki [6]: 39 µM
- EC50 [7]: 32 µM
- Activity [12]: 84%
- Ki [8]: 87 µM
- EC50 [13]: 95 µM

SMILES: CC(C)n1nnc(-c2onc(O)c2CC(N)C(=O)O)n1 (stereo not given)
- Ki [1]: 31 µM
- Ki [2]: 3.7 µM
- Ki [3]: 2.9 µM
- IC50 [4]: > 100 µM
- IC50 [5]: 6.2 µM
- Ki [6]: > 100 µM
- EC50 [7]: 71 µM
- Ki [8]: > 100 µM
- Ki [9]: 2.4 µM
- Ki [10]: 0.01 µM

- IC50 [4]: > 100 µM
- IC50 [5]: > 100 µM
- Ki [8]: > 100 µM
SMILES: NC(Cc1c(O)noc1-c1nnnn1Cc1ccccc1)C(=O)O (racemic)

SMILES: CCCn1nnc(-c2onc(O)c2CC(N)C(=O)O)n1 (stereo not given)
- Ki [1]: 5.5 µM
- Ki [2]: 1.2 µM
- Ki [3]: 1.6 µM
- IC50 [4]: > 100 µM
- IC50 [5]: 2.5 µM
- Ki [6]: > 100 µM
- EC50 [7]: 32 µM
- Ki [8]: > 100 µM
- Ki [9]: 0.73 µM
- Ki [10]: 0.0052 µM

From ChEMBL document CHEMBL1139881, “A tetrazolyl-substituted subtype-selective AMPA receptor agonist” (J Med Chem, 2007)
